Reference: the supplement of paper PMC10331698
± gives the standard deviation of the averaged measurements.

Legend:
Assay in all cases: level (log10 ratio to DMSO vehicle control); higher = higher biomarker level / cell amount than vehicle control
Conditions in all cases: in DMSO
[1] = compound: O=C(O)C(F)(F)C(F)(F)C(F)(F)C(F)(F)C(F)(F)C(F)(F)C(F)(F)C(F)(F)C(F)(F)C(F)(F)C(F)(F)C(F)(F)C(F)(F)F [Perfluorotetradecanoic acid]
Description: (§1)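 BioMAP Diversity Plus panel of 12 human primary cell co-culture systems (3C, 4H, LPS, SAg, BT, BF4T, BE3C, CASM3C, HDF3CGF, KF3CT, MyoF, Mphg). Compounds were added 1 h before stimulation and left for 24 h (MyoF 48 h; BT 72 h for soluble read-outs or 6 d for IgG). Biomarkers were read by ELISA, cytotoxicity by SRB, PBMC viability and proliferation by Alamar Blue. Each well value was divided by the mean of 8 DMSO control wells on the same plate and log10 transformed; duplicate blinded samples were tested at 4 concentrations.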

[2] = compound: O=C(O)C(F)(F)C(F)(F)C(F)(F)C(F)(F)C(F)(F)C(F)(F)C(F)(F)C(F)(F)Cl [9-Chloro-perfluorononanoic acid]
Description: as §1

[3] = compound: C=CC(=O)OCCC(F)(F)C(F)(F)C(F)(F)C(F)(F)F [2-(Perfluorobutyl)ethyl acrylate]
Description: as §1

[4] = compound: OCC(F)(F)C(F)(F)C(F)(F)C(F)(F)C(F)(F)C(F)F [1H,1H,7H-Dodecafluoro-1-heptanol]
Description: as §1

[5] = compound: O=S(=O)(O)C(F)(F)C(F)(F)C(F)(F)C(F)(F)F [Perfluorobutanesulfonic acid]
Description: as §1

Perfluorooctanamidine = compound: N=C(N)C(F)(F)C(F)(F)C(F)(F)C(F)(F)C(F)(F)C(F)(F)C(F)(F)F [Perfluorooctanamidine]
Description: as §1

Azathioprine = compound: Cn1cnc([N+](=O)[O-])c1Sc1ncnc2[nH]cnc12 [Azathioprine]
Description: as §1

| Test System | level (log10) ([1]; 6700 nM) | level (log10) ([1]; 20000 nM) | level (log10) ([2]; 6700 nM) | level (log10) ([2]; 20000 nM) | level (log10) ([3]; 6700 nM) | level (log10) ([3]; 20000 nM) | level (log10) ([3]; 60000 nM) | level (log10) ([4]; 6700 nM) | level (log10) ([4]; 20000 nM) | level (log10) ([4]; 60000 nM) | level (log10) ([5]; 6700 nM) | level (log10) ([5]; 20000 nM) | level (log10) ([5]; 60000 nM) | level (log10) (Perfluorooctanamidine; 6700 nM) | level (log10) (Perfluorooctanamidine; 20000 nM) | level (log10) (Perfluorooctanamidine; 60000 nM) | level (log10) (Azathioprine; 1400 nM) | level (log10) (Azathioprine; 4200 nM) | level (log10) (Azathioprine; 13000 nM) | level (log10) (Azathioprine; 38000 nM) |
| --- | --- | --- | --- | --- | --- | --- | --- | --- | --- | --- | --- | --- | --- | --- | --- | --- | --- | --- | --- | --- |
| 3C:Proliferation | -0.306 ± 0.046 | -0.329 ± 0.15 | 0.016 ± 0.079 | 0.019 ± 0.041 | -0.0445 ± 0.049 | -0.088 ± 0.028 | -0.304 ± 0.07 | -0.0365 ± 0.091 | -0.0885 ± 0.07 | -0.034 ± 0.045 | -0.002 ± 0.0014 | 0.017 ± 0.031 | -0.0525 ± 0.023 | -0.0395 ± 0.018 | -0.054 ± 0.028 | -0.194 | -0.04 ± 0.057 | -0.038 ± 0.081 | -0.048 ± 0.018 | -0.179 ± 0.031 |
| SAg:CXCL9/MIG | -0.004 ± 0.014 | 0.001 ± 0.0085 | -0.001 ± 0.013 | -0.0025 ± 0.0021 | -0.007 ± 0.016 | 0.001 ± 0.0057 | -0.004 ± 0.013 | 0.006 ± 0.0071 | -0.006 ± 0.0071 | 0.01 ± 0.0099 | -0.0105 ± 0.00071 | 0.002 ± 0.014 | -0.002 ± 0.02 | 0 ± 0.0085 | 0.0085 ± 0.0021 | 0.007 | 0.006 ± 0.024 | 0.002 ± 0.0057 | 0.0025 ± 0.0078 | 0.008 ± 0.0085 |
| BE3C:HLA-DR | -0.013 ± 0.041 | -0.0135 ± 0.06 | -0.0575 ± 0.025 | -0.445 ± 0.052 | 0.0145 ± 0.022 | -0.02 ± 0.0071 | -0.0575 ± 0.005 | 0.0155 ± 0.032 | -0.0015 ± 0.042 | -0.0095 ± 0.015 | -0.003 | 0 ± 0.0028 | 0.0035 ± 0.018 | -0.0015 ± 0.018 | -0.003 ± 0.021 | -0.01 | -0.0075 ± 0.021 | -0.0095 ± 0.0021 | -0.0165 ± 0.021 | -0.032 ± 0.044 |
| BT:Secreted IgG | -0.029 ± 0.072 | 0.001 ± 0.03 | 0.0065 ± 0.06 | 0.0175 ± 0.011 | 0.025 ± 0.017 | -0.053 ± 0.054 | -0.359 ± 0.049 | 0.014 ± 0.025 | -0.01 ± 0.028 | -0.0275 ± 0.03 | 0.0005 ± 0.00071 | -0.0055 ± 0.023 | -0.016 ± 0.052 | 0.0115 ± 0.039 | -0.042 ± 0.0042 | -0.034 | -0.866 ± 0.086 | -0.986 ± 0.019 | -0.857 ± 0.054 | -0.672 ± 0.0085 |
| SAg:CD38 | -0.0205 ± 0.03 | -0.018 ± 0.016 | -0.02 ± 0.021 | -0.0315 ± 0.028 | -0.007 ± 0.028 | -0.0105 ± 0.023 | -0.126 ± 0.0092 | 0.0005 ± 0.013 | 0.0105 ± 0.019 | 0.0075 ± 0.022 | -0.005 ± 0.0028 | -0.0085 ± 0.0064 | -0.0155 ± 0.00071 | 0.009 ± 0.017 | 0.001 ± 0.013 | -0.074 | 0.0035 ± 0.0035 | -0.0035 ± 0.00071 | -0.0265 ± 0.013 | -0.0765 ± 0.03 |
| BE3C:CXCL8/IL-8 | -0.005 ± 0.055 | 0.0365 ± 0.052 | 0.0025 ± 0.025 | -0.102 ± 0.049 | 0.006 ± 0.025 | -0.0165 ± 0.06 | -0.016 ± 0.095 | 0.0245 ± 0.053 | 0.0005 ± 0.032 | -0.009 ± 0.014 | 0.0075 ± 0.035 | 0.013 ± 0.028 | 0.0005 ± 0.0092 | 0.029 ± 0.042 | -0.026 ± 0.061 | -0.034 | -0.012 ± 0.059 | -0.013 ± 0.054 | -0.052 | -0.088 ± 0.013 |
| SAg:PBMC Cytotoxicity | -0.051 ± 0.014 | -0.016 ± 0.024 | 0.032 ± 0.028 | 0.0255 ± 0.032 | -0.034 ± 0.0085 | -0.0385 ± 0.011 | -0.125 ± 0.028 | 0.001 ± 0.0099 | 0.028 ± 0.067 | -0.039 ± 0.0028 | -0.029 ± 0.038 | -0.0315 ± 0.036 | 0.023 ± 0.024 | 0.011 ± 0.021 | 0.003 ± 0.016 | -0.263 | -0.007 ± 0.033 | -0.0015 ± 0.044 | -0.0385 ± 0.03 | -0.0635 ± 0.023 |
